# Assay results published in article doi:10.1101/2021.04.29.441652v1 (biorxiv, 2021).
# Biological target: human σ2 receptor (TMEM97) (Homo sapiens, UniProt Q5BJF2)
# Test: biochemical
# Format: Expi293 membranes
# Settings: read-out: % of control remaining
# human σ2 receptor (TMEM97), sequence (Q5BJF2 whole entry): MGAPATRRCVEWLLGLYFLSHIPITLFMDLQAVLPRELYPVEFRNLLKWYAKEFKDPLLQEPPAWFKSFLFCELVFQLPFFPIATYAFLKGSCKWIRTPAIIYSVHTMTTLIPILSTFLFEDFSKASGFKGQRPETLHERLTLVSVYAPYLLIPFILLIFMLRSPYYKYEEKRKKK
row,Compound,remaining activity at 1 µM [%]
1,C[C@H](C(=O)NCC1CCCCC1)N1CCC[C@H](N2CCCC2=O)CC1 [ZINC000334024070],111
2,O=C1NCCC[C@@H]1N1CC[C@@H](c2cccc(Cl)c2)C1 [ZINC000336580930],60.9
3,C[C@H]1CN(CCN(C)C(=O)C(=O)NC2CCN(C)CC2)C[C@H](C)O1 [ZINC000339640280],106
4,Cc1ccncc1N1CCN(C[C@H](O)CN2C[C@@H](C)O[C@H](C)C2)CC1 [ZINC000340106708],50
5,Cc1cnc(CN[C@@H](CO)CCC(C)(C)C)n1C [ZINC000341348768],103
6,COCCN1CCC(NC(=O)C(=O)N[C@H]2CCOC(C)(C)C2)CC1 [ZINC000343016571],118
7,C[C@@H]1OCC[C@]1(C)NC(=O)CCc1nc2c(O)nc(=O)n(C)c2[nH]1 [ZINC000345525893],90.8
8,CC[C@H](NC(=O)C(=O)N(CC)CCCN1CCCC1)[C@@H]1CCCO1 [ZINC000345970626],71.7
9,COC(=O)[C@@H]1CCN([C@H](C)C(=O)NCc2ccccc2C)[C@@H]1C [ZINC000347007006],108
10,CN(C/C=C\c1ccc(F)c(F)c1)[C@@H]1COC[C@@H]1O [ZINC000348635286],105
11,C[C@@H]1CCN2C(=O)N(CCCN3CCC[C@@H](C(N)=O)C3)C(=O)[C@H]2C1 [ZINC000349353698],142
12,N#Cc1ccc(N2CCN(C[C@H](O)CC3CCCC3)CC2)c(F)c1 [ZINC000352856249],43
13,Cc1cc(CN2CC[C@H]2Cc2ccccc2)ccc1-n1cncn1 [ZINC000353995714],13.2
14,CN1CC[C@](O)(CNC(=O)c2cc3cc([N+](=O)[O-])ccc3s2)C1 [ZINC000358051108],102
15,CN1CC[C@](O)(CNC(=O)c2ccc([N+](=O)[O-])c3cccnc23)C1 [ZINC000358062278],102
16,CCc1ccnc(CNC(=O)C(=O)N[C@@H]2C[C@H](C)N(C3CC3)C2)c1 [ZINC000358071102],113
17,Cc1ccc([C@H](NC[C@@]2(O)CCN(C)C2)c2ccccc2)cc1 [ZINC000358253868],52.1
18,CC(C)N1C[C@H](NC(=O)c2ccn(Cc3ccccc3)c2)[C@@H](C)C1 [ZINC000359009035],99.8
19,Cc1nc2n(n1)CCN(C(=O)C(=O)N[C@@H]1CCO[C@@H](CC(C)C)C1)C2 [ZINC000361132106],76.4
20,CCO[C@@H](CC(=O)N1CCCN(C2CCCC2)CC1)C1=CCCC1 [ZINC000362611503],27.8
21,CC(C)N1CCN([C@H]2CCN(C(=O)CC3(O)CCCCC3)C2)CC1 [ZINC000363920872],88.9
22,CN1CC[C@]2(CCN(C(=O)CN3C(=O)NC4(CCCC4)C3=O)C2)C1 [ZINC000366544782],110
23,Cc1ccccc1Cc1nnc(CN2C[C@@H](N3CCCC3)C[C@H]2C)o1 [ZINC000367601434],90.8
24,CN1CCO[C@@H](CN(Cc2cnc(-c3cnn(C)c3)nc2)CC2CC2)C1 [ZINC000369129048],120
25,N#CC1(c2ccccn2)CCN([C@@H]2Cc3ccccc3[C@@H]2O)CC1 [ZINC000369205980],112
26,O=C1CCCCN1[C@@H]1CCCN(Cc2cc(-c3ccccc3)no2)C1 [ZINC000370893072],82.1

row,Compound,remaining activity at 1 µM [%]
1,CN1CCC(C(=O)N2CCC[C@@H](c3nc4ccc(F)cc4o3)C2)CC1 [ZINC000370933962],98.9
2,Cc1cc(C)cc(NC(=O)[C@H](C)N2CC[C@@H](C3CCOCC3)C2)c1 [ZINC000374368469],5.8
3,C[C@@H](CO)N1CCCN([C@@H](C)C(=O)Nc2cccc(Cl)c2Cl)CC1 [ZINC000375486080],48.7
4,CC[C@H](c1ccccc1)N1CCC(C#N)(c2ccccn2)CC1 [ZINC000376738332],84
5,CS[C@H](CO)[C@@H](C)NC(=O)N[C@@H]1CCN(C2CCN(C)CC2)C1 [ZINC000377772869],100
6,NC(=O)c1ccccc1N1CC[C@H](NC(=O)CC2CCNCC2)C1 [ZINC000378210510],95.3
7,C[C@H](N[C@@H]1CCCc2c1[nH]c1ccccc21)[C@H]1CCCOC1 [ZINC000389015736],54.1
8,COc1ccc2cc(CN[C@](C)(CO)C(C)C)ccc2c1 [ZINC000398583627],14.6
9,CCc1cc(NC(=O)[C@@H]2CC[C@H](C3CC3)N2)ccc1C [ZINC000407281203],80.8
10,O=C(NC1CC1)C(=O)N1CCN(S(=O)(=O)C[C@@H]2CCCO2)CC1 [ZINC000407973885],120
11,O=C(c1cncc(N2CCOCC2)c1)N1CCN2C(=O)NC[C@@H]2C1 [ZINC000408001865],110
12,CN(Cc1cc(F)cc(F)c1)C(=O)C(=O)N1CC[C@H](N2CC=CC2)C1 [ZINC000410783840],103
13,C[C@H](C(=O)NCc1ccc(F)cc1)N1C[C@H]2C[C@@H](O)CC[C@H]2C1 [ZINC000412048402],88.6
14,CC1CCN(C[C@H](O)CNc2nccc3ccc([N+](=O)[O-])cc23)CC1 [ZINC000413145325],62.9
15,O=C(NC[C@H]1CCCN1)Nc1cc(F)cc(F)c1Br [ZINC000415549177],73.8
16,Cc1cc([N+](=O)[O-])cc(C)c1S(=O)(=O)NC[C@H]1CCN(C)C1 [ZINC000416493836],72.3
17,C[C@H](N)[C@@H]1CCCCN1C(=O)NCc1cn2ccccc2n1 [ZINC000416873685],127
18,CC(C)(C(=O)N[C@@H]1CCCc2cc(N)ccc21)[C@H](N)c1ccccc1 [ZINC000417806012],96.2
19,Cc1cccc(C)c1OC[C@H](C)NC(=O)C(=O)NC[C@@H]1CCCNC1 [ZINC000418924570],64.9
20,CN(Cc1ccccc1)C(=O)CNC(=O)C(=O)N[C@H]1CCCNC1 [ZINC000419445843],82.5
21,CC[C@H]1CN(C(=O)C(=O)NCCCN2CCNCC2)CCS1 [ZINC000419873354],95.7
22,NC[C@@H](NC(=O)C(=O)NCCN1CCSCC1)C1CCCC1 [ZINC000420063417],94.1
23,CC(C)Sc1c(Cl)cccc1NC(=O)C(=O)N(C)C[C@H]1CCCN1C [ZINC000421295130],77.9
24,COc1ccc(Oc2ccc([N+](=O)[O-])cc2C(=O)N(C)C[C@H]2CCCN2C)cc1 [ZINC000421699823],96.4
25,CCC[C@@H](C(=O)N(C)C[C@H]1CCCN1C)c1ccccc1 [ZINC000421701270],76.1
26,CC(C)CSc1ccc([N+](=O)[O-])cc1C(=O)N(C)C[C@H]1CCCN1C [ZINC000421710394],94.6

row,Compound,remaining activity at 1 µM [%]
1,CC(C)Sc1ccc([N+](=O)[O-])cc1C(=O)N(C)C[C@H]1CCCN1C [ZINC000421710406],81.8
2,COC(=O)[C@@]1(C)CCCN(C(=O)C(=O)N[C@@H](C)Cc2ccncc2)C1 [ZINC000422349618],129
3,C[C@H](c1ccccc1Br)N(C)C(=O)C[C@@H]1CCCN1 [ZINC000423867812],95.6
4,O[C@H](COC(c1ccccc1)c1ccccc1)CN1CC[C@@H]2CCC[C@H]21 [ZINC000426471156],36.3
5,O=C(CN1CC[C@@H]2CCC[C@@H]21)Nc1cccc(I)c1 [ZINC000426526480],92
6,O[C@@H](CN[C@@H](Cc1ccccc1F)c1ccccc1)CN1CCCC1 [ZINC000429522320],60.1
7,CCCN1C(=O)N(CC(C)(C)N2CCc3ccccc3C2)C(=O)[C@H]1CC [ZINC000430847713],67.3
8,O=C(C[C@@H]1CCCN1CCOc1cccc([N+](=O)[O-])c1)c1cccs1 [ZINC000430988927],7.5
9,CCc1ccc([C@@H]2CCN(Cc3cc(=O)n4c(C)cccc4n3)C2)cc1 [ZINC000433044150],5
10,CN(C(=O)CN1CCC(c2cnc[nH]2)CC1)C(c1ccccc1)c1ccccc1 [ZINC000435004139],99.6
11,CC(C)N1C[C@H](NC(=O)N[C@@H](C)c2ccc(Br)s2)[C@@H](C)C1 [ZINC000436303801],75.3
12,C[C@@H]1CCC[C@@H](NC(=O)CN2CCN(CC[C@@H]3CCOC3)CC2)C1 [ZINC000438095302],38.1
13,Cc1c(C(=O)NCC2CCCC2)cnc2c1c(=O)n(C)c(=O)n2C [ZINC000438905691],105
14,C[C@@H]1C[C@@H](c2ccccc2)CCN1Cc1nc(C2CC2)cs1 [ZINC000439311985],106
15,CO[C@H](C)CS(=O)(=O)N1CCN(C(=O)C(=O)N2CCCC2)CC1 [ZINC000442921898],111
16,CCO[C@@H]1C[C@](CO)(NC[C@H](O)COC2CCOCC2)C1(C)C [ZINC000444807044],120
17,O[C@@H](CN[C@@H](c1ccc(Br)cc1Cl)C1CC1)CN1CCCC1 [ZINC000446751851],20.8
18,CCC(CC)n1ccc(CN2CC=C(c3ccc(O)cc3)CC2)n1 [ZINC000448446275],38.7
19,C[C@@H]1CCC[C@H](NC(=O)CN2CCN(CCC3=CCCCC3)CC2)C1 [ZINC000450551910],16
20,CS[C@@H]1CCN(C[C@@H](O)COC(c2ccc(F)cc2)c2ccc(F)cc2)C1 [ZINC000451319844],63
21,O=C([C@@H]1C[C@H]1C(F)(F)F)N(CCN1CCCCCC1)C1CCC1 [ZINC000452023252],37.5
22,CC(C)N1CC[C@H](N(C)S(=O)(=O)C[C@H]2CCCCC2(F)F)C1 [ZINC000452100574],73.3
23,CC(C)N1CC[C@@H](N(C)S(=O)(=O)c2c(F)c(F)cc(F)c2F)C1 [ZINC000452107481],36.9
24,C[C@H](CCCc1cccnc1)N[C@@H](C)Cn1cccn1 [ZINC000453142034],24.9
25,C[C@@H](CC(N)=O)NC[C@H](CO)Cc1cc(Br)ccc1F [ZINC000453336584],100
